Measurements published in patent US20230390314A1, “METABOLIC ACTIVATORS FOR ENHANCING SPERM CAPACITATION IN MAMMALS” (UNIVERSIDADE DO PORTO, priority 2020, published 2023).

Legend:
[1] = tested on: human spermatozoa; assay: Protein tyrosine phosphorylation (sperm capacitation hallmark) by anti-phosphotyrosine western blot; format: cell-based
Protocol: For sperm incubations Biggers-Whitten-Whittingham (BWW) media described by Biggers J D et al. (1971) with slightly modifications was used. BBW-washed (BWW-W): 94.5 mM NaCl, 4.8 mM KCl, 1.7 mM CaCl2×2H2O, 1.17 mM KH2PO4, 1.22 mM MgSO4×7H2O, 20 mM HEPES. Non capacitation media (NC) contains all the component of BWW-washed plus 5.56 mM glucose and gentamycin 10 mg/mL. Capacitating media (CAP): contains all the component of NC plus 25 mM of HCO3 and 26 mg of Bovine Serum Albumin (BSA). All the media were balanced to a final pH 7.2-7.4
(§1) For sperm preparation, semen samples were collected by masturbation into sterile cups after 2-4 days of sexual abstinence. Samples were left to liquefy for up 2 hours at 37° C. to complete liquefaction prior to processing as described below. Only ejaculates whose semen parameters (total fluid volume, sperm concentration, motility and morphology) meet the (2010) normality criteria established by the WHO (2010) were processed. Ejaculates were submitted to discontinuous gradient centrifugation (Sperm Wash Gradient Set (45% and 90%)) for 20 min at 300 g at room temperature. […] The pellet was then resuspended in 1 mL of non-capacitating (NC) media and sperm concentration was determined using a Neubauer counting chamber under an optical microscope (×100 magnification). Due to the low number of spermatozoa obtained in each ejaculate, different ejaculates were pooled for different assessments. Finally, depending on experimental design spermatozoa were diluted in 1 ml of capacitating (CAP media containing 26 mg/mL of BSA and 25 mM of bicarbonate) or NC at a final concentration of 20×10^6/ml for 6 hours at 37° C. in presence or absence of the activator. YK-3-237 was added at the referred concentration at time 0 of incubation and keep along the time of sperm incubation.
For the Western blot analysis, spermatozoa were washed twice in phosphate-buffered saline (PBS) by centrifugation at 5000 g for 3 min at room temperature. The pellet was resuspended in 2×Laemmli sample buffer and incubated over night at 4° C. The samples were then centrifuged again (10000 g, 15 min, 4° C.) and the protein concentration was measured using a Bio-Rad DC Protein Assay. […] The phosphorylation state of the sperm proteins was analysed by overnight incubation at 4° C. with an anti-phosphotyrosine monoclonal antibody (mAb; Clone 4G10, Millipore; diluted 1:3000, v/v, in Tris-buffered saline-Tween 20 solution (TBST) containing 3% milk). The levels of sperm lipid peroxidation was evaluated by overnight incubation at 4° C. with an anti-4-hydroxynonenal (4HNE) antibody (pAb; Millipore; diluted 1:3000, v/v, in Tris-buffered saline-Tween 20 solution (TBST) containing 3% BSA. Membranes incubated with anti-phosphotyrosine were incubated for 60 min at room temperature with a horseradish peroxidase (HRP)-conjugated secondary anti-mouse antibody (diluted 1:5000, v/v, in TBST containing or 3% milk). Membranes incubated with anti-4HNE were incubated for 60 min at room temperature with a horseradish peroxidase (HRP)-conjugated secondary anti-goat antibody (diluted 1:5000, v/v, in TBST containing or 3% BSA). […]
Membranes' fluorescence was read with the BioRad FX-Pro-plus (Bio-Rad, Hemel Hempstead, UK). […] Western blotting regions of interest (ROIs) used for quantification are indicated by a vertical bar on the right of the respective western blot. […]

[2] = tested on: human spermatozoa; assay: Sperm viability by eosin-nigrosin staining; format: cell-based; conditions: 6 hours, capacitating conditions
Protocol: as §1, with “YK-3-237 was added at the referred concentration at time 0 of incubation and keep along the time of sperm incubation.” left out
For determination of sperm viability, the instructions by the WHO (2010) were followed, sperm viability was assessed by eosin-nigrosin staining technique. […] A total of 200 spermatozoa were counted in random fields under a bright-field microscope. […]

[3] = tested on: breast cancer cells; conditions: Yi et al., 2013; cited from earlier work
[4] = tested on: renal fibroblast; conditions: Ponnusamy et al., 2015; cited from earlier work

## COc1ccc(/C=C/C(=O)c2cc(OC)c(OC)c(OC)c2)cc1B(O)O [YK-3-237, B-[2-methoxy-5-[(1E)-3-oxo-3-(3,4,5-trimethoxyphenyl)-1-propen-1-yl]phenyl]-boronic acid]
[1]; 10 μM, 6 hours, bicarbonate present
  tyrosine phosphorylation levels, co-incubation in presence of bicarbonate: increases the tyrosine phosphorylation levels
[1]; 10 μM, 6 hours, compared with bicarbonate alone
  tyrosine phosphorylation levels, complete capacitating media containing bicarbonate and BSA: further improved
[1]; 6 hours co-incubation, capacitating media (HCO3 25 mM, BSA 26 mg/mL), 37° C., vs control 6 hours
  tyrosine phosphorylation levels in comparison with control: tripled
[1]; 6 hours incubation in capacitating conditions (bicarbonate and BSA)
  best concentration which enhanced tyrosine phosphorylation levels: 10 µM
[1]; human sperm, capacitating conditions, FIGS. 1A, 2A and 3A
  increase of tyrosine phosphorylation levels: up to 3 folds
[2]; 10 μM
  effect on sperm viability: did not affect sperm viability
[2]; 37° C., different concentrations
  effect on sperm viability, all concentrations tested: none of the concentration tested had detrimental effect
[3]
  effect on breast cancer cells: antiproliferative effect
[4]
  effect on renal fibroblast and renal fibrogenesis: promotes renal fibroblast activation and aggravates renal fibrogenesis
